From PubChem BioAssay (NCI)
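Tested at 5 concentrations; 48 h exposure; 96-well plates; endpoints linearly interpolated, else capped at highest concentration. The concentration for full growth arrest is given as TGI.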

How the values were obtained:
Experiment in all cases: DTP human tumour cell line panel, 48 h
786-0 renal = tested on: 786-0 renal
A498 renal = tested on: A498 renal
A549 NSCLC = tested on: A549 NSCLC
ACHN renal = tested on: ACHN renal
BT-549 breast = tested on: BT-549 breast
CAKI-1 renal = tested on: CAKI-1 renal
CCRF-CEM leukemia = tested on: CCRF-CEM leukemia
COLO 205 colon = tested on: COLO 205 colon
DU-145 prostate = tested on: DU-145 prostate
EKVX NSCLC = tested on: EKVX NSCLC
HCC-2998 colon = tested on: HCC-2998 colon
HCT-116 colon = tested on: HCT-116 colon
HCT-15 colon = tested on: HCT-15 colon
HL-60(TB) leukemia = tested on: HL-60(TB) leukemia
HOP-62 NSCLC = tested on: HOP-62 NSCLC
HS 578T breast = tested on: HS 578T breast
HT29 colon = tested on: HT29 colon
IGROV1 ovarian = tested on: IGROV1 ovarian
K-562 leukemia = tested on: K-562 leukemia
KM12 colon = tested on: KM12 colon
M14 melanoma = tested on: M14 melanoma
MALME-3M melanoma = tested on: MALME-3M melanoma
MCF7 breast = tested on: MCF7 breast
MDA-MB-231 breast = tested on: MDA-MB-231 breast
MDA-MB-435 = tested on: MDA-MB-435
MDA-N = tested on: MDA-N
MOLT-4 leukemia = tested on: MOLT-4 leukemia
NCI-H226 lung = tested on: NCI-H226 lung
NCI-H23 lung = tested on: NCI-H23 lung
NCI-H460 lung = tested on: NCI-H460 lung
NCI-H522 lung = tested on: NCI-H522 lung
NCI/ADR-RES ovarian = tested on: NCI/ADR-RES ovarian
OVCAR-3 ovarian = tested on: OVCAR-3 ovarian
OVCAR-4 ovarian = tested on: OVCAR-4 ovarian
OVCAR-5 ovarian = tested on: OVCAR-5 ovarian
OVCAR-8 ovarian = tested on: OVCAR-8 ovarian
PC-3 prostate = tested on: PC-3 prostate
RPMI-8226 leukemia = tested on: RPMI-8226 leukemia
RXF 393 renal = tested on: RXF 393 renal
SF-268 CNS = tested on: SF-268 CNS
SF-295 CNS = tested on: SF-295 CNS
SF-539 CNS = tested on: SF-539 CNS
SK-MEL-2 melanoma = tested on: SK-MEL-2 melanoma
SK-MEL-28 melanoma = tested on: SK-MEL-28 melanoma
SK-MEL-5 melanoma = tested on: SK-MEL-5 melanoma
SK-OV-3 ovarian = tested on: SK-OV-3 ovarian
SN12C renal = tested on: SN12C renal
SNB-19 CNS = tested on: SNB-19 CNS
SNB-75 CNS = tested on: SNB-75 CNS
SR leukemia = tested on: SR leukemia
SW-620 colon = tested on: SW-620 colon
T-47D breast = tested on: T-47D breast
TK-10 renal = tested on: TK-10 renal
U251 CNS = tested on: U251 CNS
UACC-257 melanoma = tested on: UACC-257 melanoma
UACC-62 melanoma = tested on: UACC-62 melanoma
UO-31 renal = tested on: UO-31 renal

With `CC(=O)O[C@H]1C[C@H]2[C@@H]([C@H](OC(C)=O)C[C@@H]3CC4(CC[C@@]32C)OOC2(CCCCC2)OO4)[C@@H]2CC[C@H]([C@H](C)CCC(N)=O)[C@@]12C` as the molecule, how does the TGI (786-0 renal) read?
Its TGI is 3.52 µM.

What about the TGI (A498 renal) of the same molecule?
Its TGI is 18.1 µM.

And the TGI (A549 NSCLC)?
The TGI was 2.93 µM.

What about the TGI (ACHN renal) of the same molecule?
Its TGI is 3.12 µM.

What about the TGI (BT-549 breast) of the same molecule?
Its TGI is 4.86 µM.

What about the TGI (CAKI-1 renal) of the same molecule?
The TGI was 2.14 µM.

What about the TGI (CCRF-CEM leukemia) of the same molecule?
The TGI was 3.13 µM.

What about the TGI (COLO 205 colon) of the same molecule?
The TGI was 3.68 µM.

And the TGI (DU-145 prostate)?
Its TGI is 3.52 µM.

What about the TGI (EKVX NSCLC) of the same molecule?
Its TGI is 3.23 µM.

And the TGI (HCC-2998 colon)?
Its TGI is 7.41 µM.

And the TGI (HCT-116 colon)?
The TGI was 11.2 µM.

And the TGI (HCT-15 colon)?
Its TGI is 5.31 µM.

What about the TGI (HL-60(TB) leukemia) of the same molecule?
The TGI was 3.81 µM.

And the TGI (HOP-62 NSCLC)?
The TGI was 2.11 µM.

And the TGI (HS 578T breast)?
The TGI was 19.7 µM.

What about the TGI (HT29 colon) of the same molecule?
The TGI was 14.3 µM.

And the TGI (IGROV1 ovarian)?
The TGI was 0.474 µM.

And the TGI (K-562 leukemia)?
The TGI was 6.02 µM.

And the TGI (KM12 colon)?
Its TGI is 3.3 µM.

And the TGI (M14 melanoma)?
The TGI was 9.67 µM.

And the TGI (MALME-3M melanoma)?
The TGI was 6.82 µM.

What about the TGI (MCF7 breast) of the same molecule?
Its TGI is 9.29 µM.

What about the TGI (MDA-MB-231 breast) of the same molecule?
The TGI was 4.22 µM.

And the TGI (MDA-MB-435)?
The TGI was 3.27 µM.

And the TGI (MDA-N)?
The TGI was 3.71 µM.

And the TGI (MOLT-4 leukemia)?
The TGI was 2.9 µM.

What about the TGI (NCI-H226 lung) of the same molecule?
Its TGI is 6.8 µM.

And the TGI (NCI-H23 lung)?
The TGI was 2.83 µM.

What about the TGI (NCI-H460 lung) of the same molecule?
The TGI was 5.06 µM.

And the TGI (NCI-H522 lung)?
The TGI was 1.48 µM.

And the TGI (NCI/ADR-RES ovarian)?
The TGI was 4.95 µM.

And the TGI (OVCAR-3 ovarian)?
The TGI was 3.17 µM.

And the TGI (OVCAR-4 ovarian)?
Its TGI is 4.21 µM.

And the TGI (OVCAR-5 ovarian)?
Its TGI is 6.65 µM.

What about the TGI (OVCAR-8 ovarian) of the same molecule?
The TGI was 9.87 µM.

And the TGI (PC-3 prostate)?
Its TGI is 4.15 µM.

What about the TGI (RPMI-8226 leukemia) of the same molecule?
The TGI was 2.7 µM.

And the TGI (RXF 393 renal)?
The TGI was 10.2 µM.

What about the TGI (SF-268 CNS) of the same molecule?
The TGI was 3.47 µM.

What about the TGI (SF-295 CNS) of the same molecule?
The TGI was 9.66 µM.

And the TGI (SF-539 CNS)?
Its TGI is 10.7 µM.

And the TGI (SK-MEL-2 melanoma)?
Its TGI is 4.48 µM.

What about the TGI (SK-MEL-28 melanoma) of the same molecule?
The TGI was 24.7 µM.

What about the TGI (SK-MEL-5 melanoma) of the same molecule?
Its TGI is 5.24 µM.

What about the TGI (SK-OV-3 ovarian) of the same molecule?
The TGI was 25.5 µM.

What about the TGI (SN12C renal) of the same molecule?
The TGI was 5.5 µM.

And the TGI (SNB-19 CNS)?
The TGI was 20.1 µM.

What about the TGI (SNB-75 CNS) of the same molecule?
The TGI was 4.89 µM.

And the TGI (SR leukemia)?
The TGI was 1.88 µM.

What about the TGI (SW-620 colon) of the same molecule?
Its TGI is 5.77 µM.

What about the TGI (T-47D breast) of the same molecule?
The TGI was 3.84 µM.

What about the TGI (TK-10 renal) of the same molecule?
The TGI was 6.27 µM.

What about the TGI (U251 CNS) of the same molecule?
Its TGI is 3.15 µM.

What about the TGI (UACC-257 melanoma) of the same molecule?
The TGI was 19.9 µM.

What about the TGI (UACC-62 melanoma) of the same molecule?
The TGI was 6.31 µM.

What about the TGI (UO-31 renal) of the same molecule?
Its TGI is 0.193 µM.
